Converted amounts (≈) assume the structure as drawn. Read-outs that look alike come from different tables or passages of the source. Residues, ends and D or L forms follow the SMILES beside them. *: point of attachment. Biotin = O=C1N[C@H]2[C@H](CS[C@H]2CCCCC(=O)*)N1
What was measured:
[1] = test system: live cells in suspension or subconfluent monolayers; assay type: cell-based
[2] = test system: Escherichia coli ATCC 25922; assay: Antimicrobial assay (MIC), E. coli; assay type: cell-based; details: overnight at 37° C.
Description: Antimicrobial assay. Two bacterial strains (Escherichia coli ATCC 25922 and Enterococcus faecalis ATCC 29212) were inoculated on heart infusion agar with 5% sheep blood and incubated aerobically overnight at 37° C. From the pure cultures, suspensions were made in saline to a density of 0.5 McFarland. These suspensions were diluted ten-fold in Mueller Hinton II broth, resulting in a final inoculum of approximately 10^7 cfu/ml.
Standard 96-well microtiter trays were filled with 100 ill of two-fold dilutions of peptide in physiologic salt solution in each well, resulting in the following concentration range: 4000, 2000, 1000, 500, 250, 125, 62.25, 31.63, 15.82, 7.96 and 0 μg/ml. The trays in column 12 were filled with 200 μl MH II broth (negative control).
Columns 1-11 of the microtiter trays were filled with 100 μl of the final inoculum of the bacterial suspensions, thus diluting the concentrations of the peptide two fold, resulting in the following peptide concentration range in the wells: 2000, 1000, 500, 250, 125, 62.25, 31.63, 15.82, 7.96, 3.98 and 0 μg/ml. In rows B, C and D, 100 μl of the final inoculum of E. coli and, in rows E, F and G, 100 μl of the final inoculum of E. faecalis was pipetted. The final bacterial concentration was approximately 5×10^5 cfu/well. All trays were sealed and incubated overnight at 37° C. After incubation, the microtiter trays were inspected visually for bacterial growth and the absorbance of the cultures at 630 nm (A630) was determined with an ELISA-reader. […] The experiment was performed independently in triplicate. The test was repeated again in triplicate after two days with the final peptide concentration range in the wells: 5000, 2500, 1250, 625, 312.5, 156.25, 78.12, 39.06, 19.58, 9.79, 4.88, 2.44 and 1.22 μg/ml.

guinea pig erythrocytes = assay: Hemolytic assay, guinea pig erythrocytes; assay type: cell-based; details: 1% v/v, one hour at 37° C.
Description: Hemolytic assay. Hemolytic activity of various peptide concentrations was determined by incubation with human, guinea pig or sheep erythrocyte suspensions (final erythrocyte concentration, 1% v/v) for one hour at 37° C. After cooling and centrifugation, the optical density of the supernatants were measured at 540 nm. Peptide concentrations causing 50% hemolysis (EC50) were derived from the dose-response curves.

[3] = test system: fixed cells (Ebtr, SK6, sf-21, Caco-2 and HT-29); assay type: cell-based
human breast skin = human breast skin in vitro, two hours
Description: (§1) Transdermal transport. The potential of the an E^rns peptide to penetrate the skin was tested by applying 150 μl 0.3-4 mM of biotinylated peptide in a chamber containing an isolated piece of “fresh” human breast skin or in a chamber which was glued on the skin of a live pig, or applying 50 μl of peptide solution on the skin with a cotton wool tip, or applying 50 μl of a peptide solution mixed with 50 μl of contact gel on the skin for 30 minutes to 120 minutes. After the incubation time, the pig was killed, the skin was cleaned and biopsied, and a biopsy was frozen in liquid nitrogen. Cryosections of the skin samples were fixed on microscopic slides with acetone and incubated with streptavidin-FITC ( 1/100) for 30 minutes.

skin of a live pig = test system: skin of a live pig
Description: as §1

[4] = Table 9, lower concentration = higher translocation activity

Compound: CC[C@H](C)[C@H](NC(=O)[C@H](CCCNC(=N)N)NC(=O)[C@H](CC(C)C)NC(=O)[C@H](CCC(N)=O)NC(=O)[C@H](CCCNC(=N)N)NC(=O)CNC(=O)[C@H](CC(C)C)NC(=O)[C@H](Cc1c[nH]c2ccccc12)NC(=O)[C@H](CO)NC(=O)[C@@H](NC(=O)[C@@H](NC(=O)[C@H](CCCNC(=N)N)NC(=O)[C@H](C)NC(=O)[C@H](C)NC(=O)CNC(=O)[C@H](CCC(N)=O)NC(=O)[C@H](CCCNC(=N)N)NC(=O)CCCC[C@@H]1SC[C@@H]2NC(=O)N[C@@H]21)C(C)C)[C@@H](C)O)C(=O)N[C@@H](C)C(=O)NCC(=O)N[C@@H](CCCCN)C(=O)N[C@@H](CCCNC(=N)N)C(=O)N[C@@H](CC(C)C)C(=O)N[C@@H](CCC(=O)O)C(=O)NCC(=O)N[C@@H](CCCNC(=N)N)C(=O)N[C@@H](CO)C(=O)N[C@@H](CCCCN)C(N)=O [194-220]
- Peptide concentration that inhibits cell growth (EBTr cells; EBTr, 75 minutes incubation, growth checked after 3 to 6 days): 60 µM
- Concentration at which biotinylated peptide was still (faintly) detectable [1]: 125 nM
- Concentration (translocation activity), optimization of E^rns peptide [1, 4]: 1.0 µM
- Peptide concentration that inhibits cell growth (HeLa cells; HeLa, 75 minutes incubation, growth checked after 3 to 6 days): 40 µM
- MIC (minimal inhibitory concentration needed to inhibit bacterial growth) [2]: 50 µg/mL (≈ 15.3 µM)
- Hemolysis (peptide concentration causing 50% hemolysis) (guinea pig erythrocytes): 0.26 mg/mL

Compound: CC(C)C[C@H](NC(=O)[C@H](CCC(N)=O)NC(=O)[C@H](CCCCN)NC(=O)CNC(=O)[C@H](CC(C)C)NC(=O)[C@H](Cc1c[nH]c2ccccc12)NC(=O)[C@@H](NC(=O)[C@@H](NC(=O)[C@H](CC(C)C)NC(=O)[C@H](CCCCN)NC(=O)[C@H](C)NC(=O)[C@@H](NC(=O)CNC(=O)[C@H](CCC(N)=O)NC(=O)[C@H](CCCNC(=N)N)NC(=O)[C@H](C)NC(=O)CNC(=O)[C@H](CCC(=O)O)NC(=O)CCCC[C@@H]1SC[C@@H]2NC(=O)N[C@@H]21)[C@@H](C)O)[C@@H](C)O)[C@@H](C)O)C(=O)NCC(=O)N[C@H](C(=O)N[C@@H](C)C(=O)NCC(=O)N[C@@H](CCCCN)C(=O)N[C@@H](CCCCN)C(=O)N[C@@H](CC(C)C)C(=O)N[C@@H](CCC(=O)O)C(=O)N[C@@H](CC(N)=O)C(=O)N[C@@H](CCCCN)C(=O)N[C@@H](CO)C(=O)N[C@@H](CCCCN)C(=O)N[C@H](C(=O)N[C@@H](Cc1c[nH]c2ccccc12)C(=O)N[C@@H](Cc1ccccc1)C(=O)NCC(=O)N[C@@H](C)C(=O)N[C@@H](Cc1ccc(O)cc1)C(=O)N[C@@H](C)C(N)=O)[C@@H](C)O)[C@@H](C)O [194-230] (Biotin-EGARQGTAKLTTWLGKQLGTAGKKLENKSKTWFGAYA-NH2)
- MIC (minimal inhibitory concentration needed to inhibit bacterial growth) [2]: 93 µg/mL (≈ 22 µM)
- Hemolysis (peptide concentration causing 50% hemolysis) (guinea pig erythrocytes): 0.25 mg/mL

Compound: CC[C@H](C)[C@H](NC(=O)[C@H](CCCNC(=N)N)NC(=O)[C@H](CC(C)C)NC(=O)[C@H](CCC(N)=O)NC(=O)[C@H](CCCNC(=N)N)NC(=O)CNC(=O)[C@H](CC(C)C)NC(=O)[C@H](Cc1c[nH]c2ccccc12)NC(=O)[C@H](CO)NC(=O)[C@@H](NC(=O)[C@@H](NC(=O)[C@H](CCCNC(=N)N)NC(=O)[C@H](C)NC(=O)[C@H](C)NC(=O)CNC(=O)CCCC[C@@H]1SC[C@@H]2NC(=O)N[C@@H]21)C(C)C)[C@@H](C)O)C(=O)N[C@@H](C)C(=O)NCC(=O)N[C@@H](CCCCN)C(=O)N[C@@H](CCCNC(=N)N)C(=O)N[C@@H](CC(C)C)C(=O)N[C@@H](CCC(=O)O)C(=O)NCC(=O)N[C@@H](CCCNC(=N)N)C(=O)N[C@@H](CO)C(=O)N[C@@H](CCCCN)C(N)=O [196-220]
- MIC (minimal inhibitory concentration needed to inhibit bacterial growth) [2]: 25 µg/mL (≈ 8.35 µM)
- Hemolysis (peptide concentration causing 50% hemolysis) (guinea pig erythrocytes): 0.16 mg/mL

Compound: CC[C@H](C)[C@H](NC(=O)[C@H](CCCNC(=N)N)NC(=O)[C@H](CC(C)C)NC(=O)[C@H](CCC(N)=O)NC(=O)[C@H](CCCNC(=N)N)NC(=O)CNC(=O)[C@H](CC(C)C)NC(=O)[C@H](Cc1c[nH]c2ccccc12)NC(=O)[C@H](CO)NC(=O)[C@@H](NC(=O)[C@@H](NC(=O)[C@H](CCCNC(=N)N)NC(=O)CCCC[C@@H]1SC[C@@H]2NC(=O)N[C@@H]21)C(C)C)[C@@H](C)O)C(=O)N[C@@H](C)C(=O)NCC(=O)N[C@@H](CCCCN)C(=O)N[C@@H](CCCNC(=N)N)C(=O)N[C@@H](CC(C)C)C(=O)N[C@@H](CCC(=O)O)C(=O)NCC(=O)N[C@@H](CCCNC(=N)N)C(=O)N[C@@H](CO)C(=O)N[C@@H](CCCCN)C(N)=O [199-220]
- MIC (minimal inhibitory concentration needed to inhibit bacterial growth) [2]: 23 µg/mL (≈ 8.23 µM)
- Hemolysis (peptide concentration causing 50% hemolysis) (guinea pig erythrocytes): 0.18 mg/mL

Compound: CC[C@H](C)[C@H](NC(=O)[C@H](CCCNC(=N)N)NC(=O)[C@H](CC(C)C)NC(=O)[C@H](CCC(N)=O)NC(=O)[C@H](CCCNC(=N)N)NC(=O)CNC(=O)[C@H](CC(C)C)NC(=O)[C@H](Cc1c[nH]c2ccccc12)NC(=O)[C@H](CO)NC(=O)CCCC[C@@H]1SC[C@@H]2NC(=O)N[C@@H]21)C(=O)N[C@@H](C)C(=O)NCC(=O)N[C@@H](CCCCN)C(=O)N[C@@H](CCCNC(=N)N)C(=O)N[C@@H](CC(C)C)C(=O)N[C@@H](CCC(=O)O)C(=O)NCC(=O)N[C@@H](CCCNC(=N)N)C(=O)N[C@@H](CO)C(=O)N[C@@H](CCCCN)C(N)=O [202-220]
- MIC (minimal inhibitory concentration needed to inhibit bacterial growth) [2]: 179 µg/mL (≈ 73.5 µM)
- Hemolysis (peptide concentration causing 50% hemolysis) (guinea pig erythrocytes): >0.33 mg/mL

Compound: CC[C@H](C)[C@H](NC(=O)[C@H](CCCNC(=N)N)NC(=O)[C@H](CC(C)C)NC(=O)[C@H](CCC(N)=O)NC(=O)[C@H](CCCNC(=N)N)NC(=O)CNC(=O)CCCC[C@@H]1SC[C@@H]2NC(=O)N[C@@H]21)C(=O)N[C@@H](C)C(=O)NCC(=O)N[C@@H](CCCCN)C(=O)N[C@@H](CCCNC(=N)N)C(=O)N[C@@H](CC(C)C)C(=O)N[C@@H](CCC(=O)O)C(=O)NCC(=O)N[C@@H](CCCNC(=N)N)C(=O)N[C@@H](CO)C(=O)N[C@@H](CCCCN)C(N)=O [205-220]
- Concentration (translocation activity), optimization of E^rns peptide [1, 4]: 1.0 µM
- MIC (minimal inhibitory concentration needed to inhibit bacterial growth) [2]: >500 µg/mL
- Hemolysis (peptide concentration causing 50% hemolysis) (guinea pig erythrocytes): >0.33 mg/mL

Compound: $ENARQGAARVTSWLGRQLRIAGKRLEGRSKTWFGAYA# [191-227]
- Peptide concentration that inhibits cell growth (EBTr cells): 50 µM
- Binding to fixed cells [3]: able to bind to all tested cell types
- Time to optimal fluorescence [1]: 30 min
- Translocation activity (in words) [1]: penetrated inside all cell types
- Peptide concentration that inhibits cell growth (HeLa cells): 50 µM

Compound: Biotin-GRQLRIAGRRLRGRSR-NH2 [MDK-20]
- Concentration (translocation activity), optimization of E^rns peptide [1]: 0.1 µM
- Skin penetration of biotinylated peptide (human breast skin): could be visualized with streptavidin-FITC in the epidermis and the dermis
- Skin penetration of biotinylated peptide (skin of a live pig; skin of a pig in vivo): same results
- Time after application at which penetration into the epidermis was observed (skin of a live pig; skin of a pig in vivo): 30 min

Compound: Biotin-RSRGRLRRGAIRLQRG-Lysine (MTT)- broomacetic acid [A941]
- Concentration (translocation activity), optimization of E^rns peptide [1]: 0.03 µM
- Translocation activity (in words) [1]: higher translocation activity compared with the original MDK-20
- Accumulation in the skin compared with MDK-20 (skin of a live pig; transdermal transport, skin model not given): Much more accumulation in the skin
